{
  "source": "paper PMC2362731",
  "about": "“Phase I study of Carzelesin (U-80,244) given (4-weekly) by intravenous bolus schedule” (British Journal of Cancer, 1999)",
  "test_system": "patients with advanced solid tumours",
  "assay": "Phase I toxicity of Carzelesin, 4-weekly 10 min IV infusion (NCI-CTC grading)",
  "assay_type": "in vivo, human",
  "protocol": "Carzelesin is a cyclopropylpyrroloindole analogue which acts as a DNA-sequence-specific alkylating agent. In this phase I study, Carzelesin was given as a 4-weekly 10 min IV infusion to 51 patients with advanced solid tumours. Patients received a median of two courses (range 1–5) at one of nine dose levels: 24, 48, 96, 130, 150, 170, 210, 250 and 300 μg m^−2. According to NCI-CTC criteria, non-haematological toxicities (grade 1/2) included fever, nausea and vomiting, mucositis and anorexia, none of which was clearly dose related. The dose-limiting toxicity was haematological and consisted mainly of neutropenia and to a lesser extent thrombocytopenia. From the dose level 150 μg m^−2, the haematological toxicity (particularly thrombocytopenia) was delayed in onset, prolonged and cumulative in some patients. In several courses, double WBC nadirs occurred. The maximum tolerated dose for a single course was 300 μg m^−2. From the dose level 170 μg m^−2, the intended dose intensity could not be delivered to most patients receiving > 2 courses owing to cumulative haematological toxicity. The dose level with the best dose intensity for multiple courses was 150 μg m^−2. The pharmacokinetics of Carzelesin and its metabolites (U-76,073; U-76,074) have been established in 31 patients during the first course of treatment using a HPLC method. […] The concentration of U-76,074 (active metabolite) extended above the lower limit of quantitation (1 ng ml^−1) for short periods of time and only at the higher dose levels. There was no relationship between neutropenia and the AUC of the prodrug Carzelesin, but the presence of detectable plasma levels of the active metabolite U-76,074 was usually associated with a substantial decrease in ANC values. © 1999 Cancer Research Campaign\nCarzelesin (U-80,244, Figure 1A) is a cyclopropylpyrroloindole (CPI) prodrug analogue of CC-1065. […] CPI drugs are a class of compounds with unique DNA interactive properties. These agents fit into the minor groove region of DNA, and the CPI function in the molecule mediates a covalent binding to the N3 position of adenine in A-T rich regions, thus forming DNA adducts in a sequence selective fashion (Hurley et al, 1984; Reynolds et al, 1985). Three new CPIs have now been developed. […] Bizelesin differs from the classical CPI drugs in that it contains two chloromethyl functions, which are both converted (via intramolecular rearrangements) to the CPI alkyl- ating species that interact with DNA. Consequently, this agent is capable of forming DNA interstrand cross-links (Lee et al, 1991). […] Therefore, efforts were directed to modu- late the alkylation rate by the preparation of CPI prodrugs that would require chemical or enzymatic conversion. The activation of Carzelesin is a two-step reaction with hydrolysis of the phenyl- urethane substituent to form the intermediate compound U-76,073, followed by ring closure to form the active product U-76,074 (Figure 1B). […] This higher efficacy may be related to the pharmacologic features of the compound. […] Phase I study of Carzelesin (U-80,244) given (4-weekly) by intravenous bolus schedule A Awada1, CJA Punt2, MJ Piccart1, O Van Tellingen3, L Van Manen2, J Kerger1, Y Groot4, J Wanders4, J Verweij5 and DJTh Wagener2 1Institut Jules Bordet, Bd de Waterloo 125, 1000 Brussels, Belgium; 2University Hospital, Geert Grooteplein 8, Box 9101, 6500 HB Nijmegen, The Netherlands; 3The Netherlands Cancer Institute (Antoni van Leeuwenhoek Huis), Plesmanlaan 121, 1066 CX Amsterdam, The Netherlands; 4European Organization for Research and Treatment of Cancer - New Drug Development Office, PO Box 7057, Amsterdam, The Netherlands; 5Rotterdam Cancer Institute, Groene Hilledijk 301, 3075 EA Rotterdam, The Netherlands; on behalf of the EORTC Early Clinical Studies Group and EORTC NDDO Summary Carzelesin is a cyclopropylpyrroloindole analogue which acts as a DNA-sequence-specific alkylating agent. […]",
  "key": {"[1]": {"conditions": "Table 4, dose levels 150-300 μg m-2 combined, 31 evaluable patients"}},
  "data": [
    {"smiles": "CCN(CC)c1ccc2cc(C(=O)Nc3ccc4[nH]c(C(=O)N5C[C@@H](CCl)c6c5cc(OC(=O)Nc5ccccc5)c5[nH]cc(C)c65)cc4c3)oc2c1", "note": "[Carzelesin]", "values": [
      {"measurement": "Thrombocytopenia grade 3/4, patients following the first course", "setting": "Table 3, dose level 210 μg m-2, one patient had pre-existing grade 1 thrombocytopenia", "value": "0/1"},
      {"measurement": "Neutropenia grade 3/4, No. of courses", "setting": "Table 3, dose level 250 μg m-2", "value": "1/2"},
      {"measurement": "Neutropenia grade 3/4, No. of patients (worst grade per patient)", "setting": "Table 3, dose level 250 μg m-2", "value": "0/2"},
      {"measurement": "Neutropenia grade 3/4, patients following the first course", "setting": "Table 3, dose level 250 μg m-2", "value": "1/1"},
      {"measurement": "No. of toxic patients following the first course", "setting": "Table 3, dose level 250 μg m-2", "value": 2},
      {"measurement": "Thrombocytopenia grade 3/4, No. of courses", "setting": "Table 3, dose level 250 μg m-2", "value": "1/1"},
      {"measurement": "Thrombocytopenia grade 3/4, No. of patients (worst grade per patient)", "setting": "Table 3, dose level 250 μg m-2", "value": "1/1"},
      {"measurement": "Thrombocytopenia grade 3/4, patients following the first course", "setting": "Table 3, dose level 250 μg m-2", "value": "1/0"},
      {"measurement": "No. of toxic patients/courses (grade 3/4 neutropenia and/or thrombocytopenia)", "setting": "Table 3, dose level 250 μg m-2, 5/7 evaluable patients/courses", "value": "2/3"},
      {"measurement": "Neutropenia grade 3/4, No. of courses", "setting": "Table 3, dose level 300 μg m-2", "value": "1/2"},
      {"measurement": "Neutropenia grade 3/4, No. of patients (worst grade per patient)", "setting": "Table 3, dose level 300 μg m-2", "value": "1/2"},
      {"measurement": "Neutropenia grade 3/4, patients following the first course", "setting": "Table 3, dose level 300 μg m-2", "value": "1/2"},
      {"measurement": "No. of toxic patients following the first course", "setting": "Table 3, dose level 300 μg m-2", "value": 3},
      {"measurement": "Thrombocytopenia grade 3/4, No. of courses", "setting": "Table 3, dose level 300 μg m-2", "value": "1/1"},
      {"measurement": "Thrombocytopenia grade 3/4, No. of patients (worst grade per patient)", "setting": "Table 3, dose level 300 μg m-2", "value": "1/1"},
      {"measurement": "Thrombocytopenia grade 3/4, patients following the first course", "setting": "Table 3, dose level 300 μg m-2", "value": "1/1"},
      {"measurement": "No. of toxic patients/courses (grade 3/4 neutropenia and/or thrombocytopenia)", "setting": "Table 3, dose level 300 μg m-2, 4/4 evaluable patients/courses", "value": "3/3"},
      {"measurement": "Anorexia, patients with worst CTC-grade 1", "setting": "[1]", "value": 5},
      {"measurement": "Anorexia, patients with worst CTC-grade 2", "setting": "[1]", "value": 5},
      {"measurement": "Anorexia, patients with worst CTC-grade 3", "setting": "[1]", "value": 0},
      {"measurement": "Anorexia, patients with worst CTC-grade 4", "setting": "[1]", "value": 0},
      {"measurement": "Bilirubin toxicity, patients with worst CTC-grade 2", "setting": "[1]", "value": 6},
      {"measurement": "Bilirubin toxicity, patients with worst CTC-grade 3", "setting": "[1]", "value": 1},
      {"measurement": "Bilirubin toxicity, patients with worst CTC-grade 4", "setting": "[1]", "value": 0},
      {"measurement": "Creatinine toxicity, patients with worst CTC-grade 1", "setting": "[1]", "value": 6},
      {"measurement": "Creatinine toxicity, patients with worst CTC-grade 2", "setting": "[1]", "value": 1},
      {"measurement": "Creatinine toxicity, patients with worst CTC-grade 3", "setting": "[1]", "value": 0},
      {"measurement": "Creatinine toxicity, patients with worst CTC-grade 4", "setting": "[1]", "value": 0},
      {"measurement": "Diarrhoea, patients with worst CTC-grade 1", "setting": "[1]", "value": 5},
      {"measurement": "Diarrhoea, patients with worst CTC-grade 2", "setting": "[1]", "value": 1},
      {"measurement": "Diarrhoea, patients with worst CTC-grade 3", "setting": "[1]", "value": 0},
      {"measurement": "Fatigue/asthenia, patients with worst CTC-grade 1", "setting": "[1]", "value": 3},
      {"measurement": "Fatigue/asthenia, patients with worst CTC-grade 2", "setting": "[1]", "value": 9},
      {"measurement": "Fatigue/asthenia, patients with worst CTC-grade 3", "setting": "[1]", "value": 3},
      {"measurement": "Fatigue/asthenia, patients with worst CTC-grade 4", "setting": "[1]", "value": 0},
      {"measurement": "Fever, patients with worst CTC-grade 1", "setting": "[1]", "value": 4},
      {"measurement": "Fever, patients with worst CTC-grade 2", "setting": "[1]", "value": 5},
      {"measurement": "Fever, patients with worst CTC-grade 3", "setting": "[1]", "value": 2},
      {"measurement": "Fever, patients with worst CTC-grade 4", "setting": "[1]", "value": 0},
      {"measurement": "Mucositis, patients with worst CTC-grade 1", "setting": "[1]", "value": 7},
      {"measurement": "Mucositis, patients with worst CTC-grade 2", "setting": "[1]", "value": 1},
      {"measurement": "Mucositis, patients with worst CTC-grade 3", "setting": "[1]", "value": 0},
      {"measurement": "Mucositis, patients with worst CTC-grade 4", "setting": "[1]", "value": 0},
      {"measurement": "Nausea, patients with worst CTC-grade 1", "setting": "[1]", "value": 11},
      {"measurement": "Nausea, patients with worst CTC-grade 2", "setting": "[1]", "value": 6},
      {"measurement": "Nausea, patients with worst CTC-grade 3", "setting": "[1]", "value": 2},
      {"measurement": "Nausea, patients with worst CTC-grade 4", "setting": "[1]", "value": 0},
      {"measurement": "Pain at the infusion site, patients with worst CTC-grade 1", "setting": "[1]", "value": 9},
      {"measurement": "Pain at the infusion site, patients with worst CTC-grade 2", "setting": "[1]", "value": 2},
      {"measurement": "Pain at the infusion site, patients with worst CTC-grade 3", "setting": "[1]", "value": 0},
      {"measurement": "Pain at the infusion site, patients with worst CTC-grade 4", "setting": "[1]", "value": 0},
      {"measurement": "Proteinuria, patients with worst CTC-grade 1", "setting": "[1]", "value": 3},
      {"measurement": "Proteinuria, patients with worst CTC-grade 2", "setting": "[1]", "value": 0},
      {"measurement": "Proteinuria, patients with worst CTC-grade 3", "setting": "[1]", "value": 0},
      {"measurement": "Proteinuria, patients with worst CTC-grade 4", "setting": "[1]", "value": 0},
      {"measurement": "Vomiting, patients with worst CTC-grade 1", "setting": "[1]", "value": 7},
      {"measurement": "Vomiting, patients with worst CTC-grade 2", "setting": "[1]", "value": 5},
      {"measurement": "Vomiting, patients with worst CTC-grade 3", "setting": "[1]", "value": 2},
      {"measurement": "Vomiting, patients with worst CTC-grade 4", "setting": "[1]", "value": 0},
      {"measurement": "Diarrhoea, patients with worst CTC-grade 4", "setting": "Table 4, dose levels 150-300 μg m-2 combined, 31 evaluable patients, relation to Carzelesin was unlikely", "value": 1},
      {"measurement": "patients who received red cell transfusions while on study", "setting": "different dose levels from 130", "value": "Nine patients"},
      {"measurement": "patients with grade 4 myelotoxicity", "setting": "dose level 150, six evaluable patients", "value": "two patients out of six"},
      {"measurement": "episode of febrile neutropenia", "setting": "dose level 250", "value": "One patient"},
      {"measurement": "patients with grade 4 neutropenia", "setting": "dose level 300", "value": "two out of four"},
      {"measurement": "patients with grade 4 myelotoxicity", "setting": "dose levels 96 and 130", "value": "two patients"},
      {"measurement": "grade 3 or 4 haematological toxicities", "setting": "first two dose levels (24, 48)", "value": "no grade 3 or 4 haematological toxici- ties were observed"},
      {"measurement": "second drop in leucocyte and neutrophil count after apparent recovery, evaluable courses", "setting": "from the dose level of 130", "value": 26, "unit": "%"},
      {"measurement": "second drop in leucocyte and neutrophil count after apparent recovery, evaluable patients", "setting": "from the dose level of 130", "value": 33, "unit": "%"},
      {"measurement": "non-haematological toxicities, overall", "setting": "grade 1-2, none clearly dose related", "value": "infrequent and mild"},
      {"measurement": "flush reaction, patients", "setting": "in vivo", "value": "five patients"},
      {"measurement": "haemorrhagic episodes during treatment", "setting": "in vivo", "value": "No haemorrhagic episodes"},
      {"measurement": "dose-limiting toxicity", "setting": "mainly neutropenia, to a lesser extent thrombocytopenia", "value": "haematological"},
      {"measurement": "median days to complete recovery, neutrophils", "setting": "overall, median (range)", "value": "28 (20-35) days"},
      {"measurement": "median days to complete recovery, platelets", "setting": "overall, median (range)", "value": "33 (24-56) days"},
      {"measurement": "median days to nadir, neutrophils", "setting": "overall, median (range)", "value": "12 (8-14) days"},
      {"measurement": "median days to nadir, platelets", "setting": "overall, median (range)", "value": "20 (15-26) days"}
    ]}
  ]
}
